Measured values as given in ChEMBL document CHEMBL5096230 (J Med Chem, 2022).

Legend:
Format in all cases: organism-based
Conditions in all cases: in vivo, 120 h, time 5 day
[1] = Toxicity in BALB/c mouse at 50 mg/kg, iv administered daily for 5 days
[2] = Toxicity in BALB/c mouse assessed as lethargy at 8 mg/kg, iv administered daily for 5 days
[3] = Toxicity in BALB/c mouse assessed as animal death at 8 mg/kg, iv administered daily for 5 days and measured after 2 dose

Row | SMILES | Activity [1] | Activity [2] | Activity [3]
1 | CC(=O)O[C@H]1C(=O)[C@@]2(C)[C@H]([C@H](OC(=O)c3ccccc3)[C@]3(O)C[C@H](OC(=O)[C@H](OC(=O)CCCCCn4cc(CCCC(=O)NCCCC[C@H](NC(=O)CNC(=O)[C@H](CCCCNC(=O)CNC(=O)[C@@H]5CCCN5C(=O)[C@H](CCCNC(=N)N)NC(=O)[C@H](Cc5ccccc5)NC(=O)[C@@H]5CCCN5C(=O)[C@@H](NC(=O)[C@H](C)NC(=O)[C@H](CC(=O)O)NC(=O)[C@@H]5CCCN5C(=O)[C@H](Cc5ccc(-c6ccccc6C(F)(F)F)cc5)NC(=O)[C@H](C)NC(=O)[C@H](CC(C)C)NC(=O)[C@H](Cc5ccc(N)cc5)NC(=O)CN5CCNCC5)C5CCCCC5)NC(=O)CNC(=O)[C@@H]5CCCN5C(=O)[C@H](CCCNC(=N)N)NC(=O)[C@H](Cc5ccccc5)NC(=O)[C@@H]5CCCN5C(=O)[C@@H](NC(=O)[C@H](C)NC(=O)[C@H](CC(=O)O)NC(=O)[C@@H]5CCCN5C(=O)[C@H](Cc5ccc(-c6ccccc6C(F)(F)F)cc5)NC(=O)[C@H](C)NC(=O)[C@H](CC(C)C)NC(=O)[C@H](Cc5ccc(N)cc5)NC(=O)CN5CCNCC5)C5CCCCC5)C(N)=O)nn4)[C@@H](NC(=O)c4ccccc4)c4ccccc4)C(C)=C1C3(C)C)[C@]1(OC(C)=O)CO[C@@H]1C[C@@H]2O | Non-Toxic |  | 
2 | CC(C)C[C@H](NC(=O)[C@H](Cc1ccc(N)cc1)NC(=O)CN1CCNCC1)C(=O)N[C@@H](C)C(=O)N[C@@H](Cc1ccc(-c2ccccc2C(F)(F)F)cc1)C(=O)N1CCC[C@H]1C(=O)N[C@@H](CC(=O)O)C(=O)N[C@@H](C)C(=O)N[C@H](C(=O)N1CCC[C@H]1C(=O)N[C@@H](Cc1ccccc1)C(=O)N[C@@H](CCCNC(=N)N)C(=O)N1CCC[C@H]1C(=O)NCC(=O)NCCCC[C@H](NC(=O)CNC(=O)[C@@H]1CCCN1C(=O)[C@H](CCCNC(=N)N)NC(=O)[C@H](Cc1ccccc1)NC(=O)[C@@H]1CCCN1C(=O)[C@@H](NC(=O)[C@H](C)NC(=O)[C@H](CC(=O)O)NC(=O)[C@@H]1CCCN1C(=O)[C@H](Cc1ccc(-c2ccccc2C(F)(F)F)cc1)NC(=O)[C@H](C)NC(=O)[C@H](CC(C)C)NC(=O)[C@H](Cc1ccc(N)cc1)NC(=O)CN1CCNCC1)C1CCCCC1)C(=O)NCC(=O)N[C@@H](CCCCNC(=O)CCCc1cn(CCCCCC(=O)O)nn1)C(N)=O)C1CCCCC1 | Non-Toxic |  | 
3 | CC(=O)O[C@H]1C(=O)[C@@]2(C)[C@H]([C@H](OC(=O)c3ccccc3)[C@]3(O)C[C@H](OC(=O)[C@H](O)[C@@H](NC(=O)c4ccccc4)c4ccccc4)C(C)=C1C3(C)C)[C@]1(OC(C)=O)CO[C@@H]1C[C@@H]2O [PACLITAXEL] |  | Toxic | Toxic
